# Test results taken from patent US20250290915A1, “METHOD FOR PREDICTING RESPONSIVENESS TO THERAPY” (CANCERTAIN LIMITED, priority 2022, published 2025).
# Columns and labels:
# Assay type in all cases: cell-based, human
# [1] = system: Circulating Tumour Cells (CTCs, EpCam+CD45−) from a patient with stage II synovial sarcoma; assay: Drug response score assay (RealTime-Glo MT / CellTox Green, PCL scaffold) on CTCs from blood, Example 1; set-up: key to Drug response score, conc. 1 / Drug response score, conc. 2 / Drug response score, conc. 3 / Drug response score, conc. 4: normalized drug response metric per Gupta et al. 2020; details: for Drug response score, conc. 1: conc. 1: Doxo 10 ng/ml, Ifos 0.125 μg/ml, Gemcit 2 μg/ml, Doce 0.02 μg/ml, Carbo 2 μg/ml, Dacarb 1.5 μg/ml, re-dosed at 48 h; for Drug response score, conc. 1 / Drug response score, conc. 2 / Drug response score, conc. 3 / Drug response score, conc. 4: CTCs, t96h; for Drug response score, conc. 2: conc. 2: Doxo 30 ng/ml, Ifos 0.25 μg/ml, Gemcit 10 μg/ml, Doce 0.2 μg/ml, Carbo 5 μg/ml, Dacarb 3 μg/ml; for Drug response score, conc. 3: conc. 3: Doxo 90 ng/ml, Ifos 5 μg/ml, Gemcit 20 μg/ml, Doce 2 μg/ml, Carbo 10 μg/ml, Dacarb 6 μg/ml; for Drug response score, conc. 4: conc. 4: Doxo 270 ng/ml, Ifos 10 μg/ml, Gemcit 40 μg/ml, Doce 10 μg/ml, Carbo 20 μg/ml, Dacarb 12 μg/ml; for Drug sensitivity as calculated by the assay (interpretation of Drug Response Scores): Table 5
# Method: (§1) CD45^+ cells and circulating tumour cells (CTCs) were isolated from a blood sample provided by each subject.
# (§2) CD45 separation was performed by adding human CD45 microbeads (50 μl/ml blood), incubating for 15 minutes at 4° C. and then processing using an AutoMACS machine. This separates the blood sample into CD45^+ and CD45^−cells in 2 separate falcons. The falcon tubes are then centrifuged at 1200 rpm for 5 minutes.
# (§3) The supernatant was removed from the CD45^−falcon tube, and the CD45^−cells contacted with 100 μl of FcR block and 100 μl of CD326 (EpCAM) MicroBeads, followed by incubation at […] 4° C. for 30 minutes. The CD45^−cells were then processed using an AutoMACS machine to separate the EpCAM positive and negative cells into 2 separate falcon tubes. The EpCAM-cells were discarded. The supernatant was removed from the EpCAM^+ cells, and the cells resuspended in DMEM with 2 μl Cell Tox, 2 μl MT and 2 μl MT. 20 μl of the resuspended pellet was then added to all sample wells excluding a blank. After all wells are added to, a cell count was conducted on the […] to determine the number of circulating tumour cells (CTCs).
# (§4) The different cell types were each divided equally into populations, depending on the number of drugs/concentrations to be tested and plated on a cell-culture plate pre-coated with a scaffold of polycaprolactone (PCL) electrospun fibres and incubated at 37° C., 5% CO2, for 5 to (typically 10) minutes to facilitate cell attachment. After attachment, an initial imaging step was carried out using the RealTime-Glo™ MT assay from Promega (Catalogue No. G9711)) and the CellTox™ Green Cytotoxicity Assay (Promega, Catalogue No. G8741), carried out according to manufacturer's instructions. Following this initial imagining, the immunotherapeutic and/or chemotherapeutic agents were added to the cell populations as indicated below. After 10 minutes, the imagining step was repeated. The cell populations were then incubated at 37° C., 5% CO2 for 48 hours. The imaging step was then repeated. The cell populations were then re-dosed with the same immunotherapeutic and/or chemotherapeutic agents as indicated below, and incubated at 37° C., 5% CO2 for a further 48 hours. After this second 48 hour incubation, the imagining step was repeated for a final time.
# (§5) At the end of this culture period, dose response scores were calculated using a normalized drug response metric as described in Gupta et al. (Communications Biology volume 3, Article number: 42 (2020), https://doi.org/10.1038/s42003-020-0765-z). The start readout for a given immunotherapeutic or chemotherapeutic agent at a given concentration was the to readout for said immunotherapeutic or chemotherapeutic agent at a specified concentration. The end readout for a given immunotherapeutic or chemotherapeutic agent at a given concentration was the final timepoint reading (t96h) for said immunotherapeutic or chemotherapeutic agent at a specified concentration.
# (§6) The positive control start readout for a given drug/concentration was the to readout for the corresponding drug at a specified concentration. The positive control end readout for the corresponding drug at a specified concentration was the final timepoint reading (t96h) for the corresponding blank well.
# (§7) The negative control start and end readouts for a given immunotherapeutic or chemotherapeutic agent at a given concentration were the to and final timepoint reading (t96h) respectively for blank cell or blank immuno cell well respectively.
# The sensitivity or resistance of a subject's cancer to a given immunotherapeutic or chemotherapeutic agent was determined based on the calculated drug response score as shown in Table 2.
# Blood samples from a patient with stage II synovial sarcoma (suspected spindle cell tumour) were received and tested using a 6 drug panel.
# Chemotherapeutic agents were tested as in Table 3.
# [2] = system: Circulating Tumour Cells (CTCs) from a patient with colon cancer (sigmoid colon cancer); assay: Drug response score assay on CTCs from blood, Example 8; set-up: key to Drug response score, conc. 1 / Drug response score, conc. 2 / Drug response score, conc. 3 / Drug response score, conc. 4: normalized drug response metric (Gupta et al. 2020); details: for Drug response score, conc. 1: conc. 1 of each drug as in Table 24; for Drug response score, conc. 1 / Drug response score, conc. 2 / Drug response score, conc. 3 / Drug response score, conc. 4: CTCs, t96h; for Drug response score, conc. 2: conc. 2 of each drug as in Table 24; for Drug response score, conc. 3: conc. 3 of each drug as in Table 24; for Drug sensitivity as calculated by the assay (interpretation of Drug Response Scores): sigmoid colon cancer CTCs, Table 26; for Drug response score, conc. 4: conc. 4 of each drug as in Table 24
# Method in brief: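 EpCAM+ CTCs isolated from patient blood by CD45 depletion then EpCAM bead selection, and imaged with RealTime-Glo MT viability and CellTox Green cytotoxicity reagents. Agents added, cells cultured at 37° C, 5% CO2 for 48 h, re-dosed, then a further 48 h. Score calculated by normalized drug response metric from t0 and t96h readouts against blank-well controls.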
# [3] = system: Circulating tumour cells (CTCs) from a patient with GI cancer (Cholangio Carcinoma, stage 4); assay: Drug response score assay on blood sample, Example 9; set-up: key to Drug response score from blood sample, conc. 1 / Drug response score from blood sample, conc. 2 / Drug response score from blood sample, conc. 3 / Drug response score from blood sample, conc. 4: normalized drug response metric per Gupta et al. 2020; details: for effectiveness on Circulating Tumour Cells under laboratory conditions: GI cancer (Cholangio Carcinoma) blood sample; for Drug response score from blood sample, conc. 1: conc. 1 of each drug as in Table 27; for Drug response score from blood sample, conc. 1 / Drug response score from blood sample, conc. 2 / Drug response score from blood sample, conc. 3 / Drug response score from blood sample, conc. 4: t96h; for Drug response score from blood sample, conc. 2: conc. 2 of each drug as in Table 27; for Drug response score from blood sample, conc. 3: conc. 3 of each drug as in Table 27; for Drug response score from blood sample, conc. 4: conc. 4 of each drug as in Table 27; for Drug sensitivity as calculated by the assay, Blood: interpretation based on Drug Response Scores; for Drug response score from blood sample, conc. 1 / Drug response score from blood sample, conc. 2 / Drug response score from blood sample, conc. 3 / Drug response score from blood sample, conc. 4 / Drug sensitivity as calculated by the assay, Blood: blood sample
# Method: as §1, §2
# (§8) The supernatant was removed from the CD45^+falcon tube, and the cells resuspended in DMEM with 2 μl Cell Tox, 2 μl MT and 2 μl MT. 20 μl of the resuspended CD45^+ cells was then plated in each well which will contain an immunotherapy treatment.
# as §3, §4, §5, §6, §7
# (§9) The sensitivity or resistance of a subject's cancer to a given immunotherapeutic or chemotherapeutic agent was determined based on the calculated drug response score as shown in Table 2. […]
# [4] = system: Circulating Tumour Cells (CTCs) from a patient with rectal cancer (anorectal carcinoma with secondary lung cancer); assay: Drug response score assay on CTCs (with CD45+ cells for immunotherapy) from blood, Example 3; details: for Drug response score, conc. 1: conc. 1: Pembro 20 μg/ml, Nivo 20 μg/ml (CTCs + CD45+ cells), Lenva 50 ng/ml, Regor 60 μg/ml (CTCs); for Drug response score, conc. 1 / Drug response score, conc. 2 / Drug response score, conc. 3 / Drug response score, conc. 4: t96h; for Drug response score, conc. 2: conc. 2: Pembro 40 μg/ml, Nivo 40 μg/ml (CTCs + CD45+ cells), Lenva 100 ng/ml, Regor 80 μg/ml (CTCs); for Drug response score, conc. 3: conc. 3: Pembro 100 μg/ml, Nivo 80 μg/ml (CTCs + CD45+ cells), Lenva 200 ng/ml, Regor 120 μg/ml (CTCs); for Drug response score, conc. 4: conc. 4: Pembro 160 μg/ml, Nivo 160 μg/ml (CTCs + CD45+ cells), Lenva 400 ng/ml, Regor 160 μg/ml (CTCs); for effectiveness on Circulating Tumour Cells under laboratory conditions / Drug sensitivity as calculated by the assay (interpretation of Drug Response Scores): rectal cancer CTCs; for Drug sensitivity as calculated by the assay (interpretation of Drug Response Scores): Table 11
# Method: as §1, §2, §8, §3, §4, §5, §6, §7, §9
Compound,"Drug response score, conc. 1 [1]","Drug response score, conc. 2 [1]","Drug response score, conc. 3 [1]","Drug response score, conc. 4 [1]",Drug sensitivity as calculated by the assay (interpretation of Drug Response Scores) ([1]; synovial sarcoma CTCs),"Drug response score, conc. 1 [2]","Drug response score, conc. 2 [2]","Drug response score, conc. 3 [2]",Drug sensitivity as calculated by the assay (interpretation of Drug Response Scores) [2],effectiveness on Circulating Tumour Cells under laboratory conditions [3],"Drug response score from blood sample, conc. 1 [3]","Drug response score from blood sample, conc. 2 [3]","Drug response score from blood sample, conc. 3 [3]","Drug response score from blood sample, conc. 4 [3]","Drug response score, conc. 1 [4]","Drug response score, conc. 2 [4]","Drug response score, conc. 3 [4]","Drug response score, conc. 4 [4]",effectiveness on Circulating Tumour Cells under laboratory conditions [4],Drug sensitivity as calculated by the assay (interpretation of Drug Response Scores) [4],also measured
CC(=O)O[C@@]12CO[C@@H]1C[C@H](O)[C@@]1(C)C(=O)[C@H](O)C3=C(C)[C@@H](OC(=O)[C@H](O)[C@@H](NC(=O)OC(C)(C)C)c4ccccc4)C[C@@](O)([C@@H](OC(=O)c4ccccc4)[C@H]21)C3(C)C [Docetaxel],0.8633,0.7451,0.6992,0.4852,Sensitive (S+),–,–,–,–,–,–,–,–,–,–,–,–,–,–,–,–
COc1cccc2c1C(=O)c1c(O)c3c(c(O)c1C2=O)C[C@@](O)(C(=O)CO)C[C@@H]3O[C@H]1C[C@H](N)[C@H](O)[C@H](C)O1 [Doxorubicin],0.9432,0.7234,0.8842,0.8405,Sensitive (S+),−0.0102,−0.0852,−0.2828,Sensitive (S++),–,–,–,–,–,–,–,–,–,–,–,effectiveness on Circulating Tumour Cells under laboratory conditions ([1]; synovial sarcoma CTCs): marginally less effective compared to other drugs
COc1cc([C@@H]2c3cc4c(cc3[C@@H](O[C@@H]3O[C@@H]5CO[C@@H](C)O[C@H]5[C@H](O)[C@H]3O)[C@H]3COC(=O)[C@H]23)OCO4)cc(OC)c1O [Etoposide],–,–,–,–,–,−0.4099,−0.6338,−0.6648,Sensitive (S++),–,–,–,–,–,–,–,–,–,–,–,"Drug response score, conc. 4 [2]: 0.1129"
O=P1(NCCCl)OCCCN1CCCl (stereo not drawn) [Ifosfamide],0.7534,0.6369,0.7555,0.5976,Sensitive (S+),–,–,–,–,–,–,–,–,–,–,–,–,–,–,–,–
COc1cc2nccc(Oc3ccc(NC(=O)NC4CC4)c(Cl)c3)c2cc1C(N)=O [Lenvatinib],–,–,–,–,–,–,–,–,–,S+,0.2851,0.3155,0.4097,0.6214,2.0109,1.6409,0.8991,2.0235,not effective,Resistant,"Drug sensitivity as calculated by the assay, Blood [3]: S+"
CC(=O)O[C@H]1C(=O)[C@@]2(C)[C@H]([C@H](OC(=O)c3ccccc3)[C@]3(O)C[C@H](OC(=O)[C@H](O)[C@@H](NC(=O)c4ccccc4)c4ccccc4)C(C)=C1C3(C)C)[C@]1(OC(C)=O)CO[C@@H]1C[C@@H]2O [Paclitaxel],–,–,–,–,–,−0.8976,−0.1500,−0.5818,Sensitive (S++),S+,0.2346,0.5329,0.5298,0.756,–,–,–,–,–,–,"Drug response score, conc. 4 [2]: −0.8009"
Nivolumab,–,–,–,–,–,–,–,–,–,–,1,0.2783,1.061,1.046,0.4990,0.6429,0.6261,1.0807,Sensitive S+,Sensitive (S+),–
Pembrolizumab,–,–,–,–,–,–,–,–,–,S+,0.00068,0.1572,1.041,0.6989,0.6167,0.4053,0.9748,0.7712,Sensitive S+,Sensitive (S+),"Drug sensitivity as calculated by the assay, Blood [3]: S+"
